# “Also recorded” adds a separate entry of the source. Like-named read-outs stand apart in the source and are kept apart here.
# Experiments:
# [1] = test system: Cunninghamella blakesleeana 1908 DMS; test: Cunninghamella biotransformation assay, C. blakesleeana; type: in vitro ADME; conditions: 0.5 mg/mL, 7-day incubation, LC-MS/MS
# Procedure: (§1) Three different strains of Cunninghamella were used: Cunninghamella echinulata NRRL 1384, Cunninghamella blakesleeana 1908 DMS, and Cunninghamella elegans 1906 DMS. The first was provided by Dr. A.J. Carnell (University of Liverpool, UK), whereas the two remaining were purchased from Deutsche Sammlung von Mikroorganismen und Zellkulturen GmbH (DMSZ, Braunschweig, Germany).
# (§2) Cunninghamella strains were cultivated on solid potato dextrose agar (PDA) plates at 28 °C. After 4 days, a liquid fermentation basal medium was prepared by the addition of 6 g of D-glucose, 1.5 g of NaCl, 1.5 g of yeast extract from Saccharomyces cerevisiae, and 1.5 g of K2HPO4 to 300 mL of distilled water. Aliquots of 24.5 mL of medium were inoculated with 300 μL of suspension of fungal spores obtained after wetting colonies in PDA. The fungi were incubated with shaking until the formation of spherical clumps.
# (§3) Compounds 2–4 were evaluated in this experiment. Once microorganisms formed spherical clumps in the preliminary incubation, the corresponding tested compound was added to the broth and the mixture was incubated for 7 days. Two control experiments were also performed, in the absence of compound and fungus, respectively. Biotransformation progress was monitored by TLC and by liquid chromatography electrospray ionization-tandem mass spectrometry (LC-MS/MS). Monitoring was performed at four different incubation times: 30 min, 3 days, 5 days, and 7 days.
# (§4) To analyze metabolites in LC-MS/MS, an aliquot of 500 μL of filtered sample was taken and extracted with 500 μL of dichloromethane. The organic fraction was dried with sodium sulfate, filtered, and evaporated. The obtained residue was analyzed in LC-MS/MS. At the end of experiment, all the remaining medium was extracted with 25 mL of dichloromethane after separating the fungal clumps by filtration over cellulose filters.
# (§5) Agilent 1100 HPLC system (Agilent Technologies, Waldbronn, Germany) equipped with a Xbridge™ C18 analytical column (2.1 × 30 mm, […]; Waters, Dublin, Ireland) was used in the chromatographic separation of LC-MS/MS analysis. An elution gradient of acetonitrile and water, with 0.1% of formic acid, was used as a mobile phase. MS spectra were taken at Applied Biosystems MDS Sciex API 200 triple quadrupole mass analyzer (Concord, Ontario, Canada) with an electrospray ionization (ESI) interface between HPLC and MS.
# [2] = test system: Cunninghamella echinulata NRRL 1384; test: Cunninghamella biotransformation assay, C. echinulata; type: in vitro ADME; conditions: 0.5 mg/mL, 7-day incubation, LC-MS/MS
# Procedure: as §1, §2, §3, §4, §5
# [3] = test system: Cunninghamella elegans 1906 DMS; test: Cunninghamella biotransformation assay, C. elegans; type: in vitro ADME; conditions: 0.5 mg/mL, 7-day incubation, LC-MS/MS
# Procedure: as §1, §2, §3, §4, §5
# [4] = test system: Salmonella typhimurium TA100; test: S. typhimurium antimutagenicity assay against NQNO; type: cell-based; conditions: for Number of revertants per plate, Mean ± SD: antimutagenicity, NQNO line = NQNO as a single compound
# Description: (§6) In the Ames test, Salmonella typhimurium TA100 strain was used. This strain has a base-pair substitution that can be reverted by mutations at GC pairs. In addition, it contains mutations at uvrB-bio and rfa genes to eliminate excision repair mechanisms and to make the bacteria more permeable to chemicals, respectively. Finally, TA100 also includes pKM101 plasmid, which enhances both chemical and UV-induced mutagenesis via an increase in the error-prone recombinational DNA repair pathway. TA100 strain of S. typhimurium was provided by Dr. T. Nohmi (Division of Genetics and Mutagenesis, National Institute of Hygienic Sciences, Tokyo, Japan). V. harveyi and S. typhimurium bacterial cultures were maintained at 30 and 37 °C, respectively.
# (§7) It causes point mutations at the genome as it induces G:C → A:T transitions in Vibrio harveyi strains and in other bacteria such as Escherichia coli and S. typhimurium. […] Next, its working solution was prepared in sterile water, being 40 ng/mL its final concentration.
# (§8) Procedure followed in the V. harveyi antimutagenicity assay was similar to the mutagenicity method described before. […] The results were expressed as the inhibition percentage of mutagenic effect, which was calculated with the formula: 100 − [(R 1/R 2) × 100], where R 1 is the number of revertants per plate in the presence of both mutagen and tested substance, and R 2 is the number of revertants per plate in the presence of mutagen. […] S. typhimurium antimutagenicity assay was based on similar assumptions as the V. harveyi antimutagenicity test. In this case, the chemopreventive activity was determined at two concentrations of a tested compounds and a standard mutagen, i.e., 40 and 500 ng/mL.
# Cunninghamella strains = test: Cunninghamella biotransformation assay, three strains together and blank without fungus; type: in vitro ADME; conditions: three strains, LC-MS/MS
# Procedure: as §1, §2, §3, §4
# Agilent 1100 HPLC system (Agilent Technologies, Waldbronn, Germany) equipped with a Xbridge™ C18 analytical column (2.1 × 30 mm, […]; Waters, Dublin, Ireland) was used in the chromatographic separation of LC-MS/MS analysis. […]
# Vibrio harveyi BB7XM [5] = test: Vibrio harveyi mutagenicity assay, BB7XM; type: cell-based; conditions: 40 ng/mL
# Procedure: (§9) From them, 0.2 mM working solutions were prepared by dilution with water. […] Working solutions were prepared by 1:100 dilution of stock solution in water, and final compound concentration assayed was 40 ng/mL.
# (§10) Four Vibrio harveyi strains were used in this study: a wild-type BB7 (naturally found in the Baltic Sea) and three genetically modified strains, namely BB7M (obtained by the introduction of pAB1273 plasmid containing the genes mucA and mucB to enhance the error-prone DNA repair), BB7X (hypersensitive to UV radiation after genetic modification with Tn5TpMCS), and BB7XM (containing the two abovementioned modifications). These strains were kindly provided by Prof. G. Węgrzyn (Department of Molecular Biology, University of Gdańsk, Poland).
# as §7
# (§11) To perform the V. harveyi mutagenicity test, 10 μL of a working solution of the tested compound (100 μg/mL) were added to V. harveyi bacterial culture (OD600 = 0.1) in NaCl-containing BOSS liquid medium, being 40 ng/mL the final concentration of the tested compound. […] Then, an inoculum containing 5 × 10^6 cells was added to solid BOSS agar plate supplemented with neomycin sulfate at a final concentration of 100 μg/mL. Samples were left incubating 48 h at 30 °C, and revertant colonies were counted manually.
# [6] = test system: Salmonella typhimurium TA100; test: Ames mutagenicity test; type: cell-based
# Procedure: From them, 0.2 mM working solutions were prepared by dilution with water. […]
# as §6
# It causes point mutations at the genome as it induces G:C → A:T transitions in Vibrio harveyi strains and in other bacteria such as Escherichia coli and S. typhimurium. […]
# S. typhimurium was cultivated in a fresh medium 12 h prior to a test. To perform mutagenicity assay, 100 μL of an overnight culture (containing approx. 1 × 10^8 to 2 × 10^8 bacteria) were inoculated along with 50 μL of a tested compound in 2 mL of top agar supplemented with traces of histidine and of biotin. Then the mixture was added over the surface of GM agar plates and was left incubating 48 h at 37 °C. Afterwards, the colonies were counted manually.
# Vibrio harveyi BB7M [7] = conditions: 40 ng/mL
# Procedure: as §9, §10, §7, §11
# Vibrio harveyi BB7X [8] = conditions: 40 ng/mL
# Procedure: as §9, §10, §7, §11
# Vibrio harveyi BB7 [9] = conditions: BB7, 40 ng/mL
# Procedure: as §9, §10, §7, §11
# Vibrio harveyi BB7X [10] = test: Vibrio harveyi antimutagenicity assay against NQNO, BB7X; type: cell-based; conditions: compound 40 ng/mL + NQNO 40 ng/mL
# Description: as §10, §7, §8
# Vibrio harveyi BB7 [11] = test: Vibrio harveyi antimutagenicity assay against NQNO, BB7; type: cell-based
# Description: as §10, §7, §8
# Vibrio harveyi BB7XM [12] = type: cell-based; conditions: compound 40 ng/mL + NQNO 40 ng/mL
# Description: as §10, §7, §8
# Vibrio harveyi BB7M [13] = test: Vibrio harveyi antimutagenicity assay against NQNO, BB7M; type: cell-based; conditions: compound 40 ng/mL + NQNO 40 ng/mL
# Description: as §10, §7, §8
# [14] = TA100, compound and NQNO 40 ng/mL
# [15] = TA100, compound and NQNO 500 ng/mL
# [16] = TA100, 500 ng/mL (NQNO control stated as 40 ng/mL in method)
# [17] = antimutagenicity, NQNO line = NQNO as a single compound
structure (smiles),measurement,setting,value
COc1nc2c(c(=O)n(C)c(=O)n2C)n1CCCC(=O)N1CCN(c2ccc(O)cc2)CC1 [4-M1],% of compound/metabolite in C. blakesleeana,[1],66.6%
same,% of compound/metabolite in C. echinulata,[2],87.6%
same,% of compound/metabolite in C. elegans,[3],53.0%
COc1nc2c(c(=O)n(C)c(=O)n2C)n1CCCC(=O)NCc1cccc(O)c1 [3-M3],% of compound/metabolite in C. echinulata,[2],0.3%
"COC(=O)Cn1c(OC)nc2c1c(=O)n(C)c(=O)n2C [Compound 2, methyl 2-(8-methoxy-1,3-dimethyl-2,6-dioxo-purin-7-yl)acetate]",% inhibition of NQNO mutagenicity,[4]; [14],92%
same,% inhibition of NQNO mutagenicity,[4]; [15],91%
same,"Number of revertants per plate, Mean ± SD",[4]; [14],7 ± 2
same,"Number of revertants per plate, Mean ± SD",[4]; [15],9 ± 4
same,biotransformation / detectable metabolites in Cunninghamella model (in words),Cunninghamella strains,did not undergo any biotransformation; also recorded: None of the three Cunninghamella strains evaluated generated detectable metabolites
same,MI (mutagenicity index),Vibrio harveyi BB7XM [5]; mutagenic if MI above 2.0,1.6
same,"Number of revertants per plate, Mean ± SD",Vibrio harveyi BB7XM [5]; mutagenicity,53 ± 8
same,"Number of revertants per plate, Mean ± SD","[6]; TA100, 40 ng/mL",10 ± 3
same,MI (mutagenicity index),"[6]; TA100, 40 ng/mL, mutagenic if MI >2.0",0.3
same,MI (mutagenicity index),[6]; [16],0.5
same,"Number of revertants per plate, Mean ± SD",[6]; [16],14 ± 5
same,MI (mutagenicity index),Vibrio harveyi BB7M [7]; mutagenic if MI above 2.0,1.3
same,"Number of revertants per plate, Mean ± SD",Vibrio harveyi BB7M [7]; mutagenicity,36 ± 9
same,MI (mutagenicity index),Vibrio harveyi BB7X [8]; mutagenic if MI above 2.0,1.2
same,"Number of revertants per plate, Mean ± SD",Vibrio harveyi BB7X [8]; mutagenicity,27 ± 2
same,MI (mutagenicity index),Vibrio harveyi BB7 [9]; mutagenic if MI above 2.0,1.2
same,"Number of revertants per plate, Mean ± SD",Vibrio harveyi BB7 [9]; mutagenicity,15 ± 2
same,"Number of revertants per plate, Mean ± SD",Vibrio harveyi BB7X [10]; [17],35 ± 6
same,% inhibition of NQNO mutagenicity,Vibrio harveyi BB7X [10],68%
same,% inhibition of NQNO mutagenicity,"Vibrio harveyi BB7 [11]; BB7, compound 40 ng/mL + NQNO 40 ng/mL",38%
same,"Number of revertants per plate, Mean ± SD","Vibrio harveyi BB7 [11]; antimutagenicity, BB7, compound 40 ng/mL + NQNO 40 ng/mL, NQNO line = NQNO as a single compound",34 ± 7
same,"chemopreventive (antimutagenic) effect, class","Vibrio harveyi BB7 [11]; wild BB7 strain, against NQNO",moderate or a close to moderate
same,"Number of revertants per plate, Mean ± SD",Vibrio harveyi BB7XM [12]; [17],68 ± 8
same,% inhibition of NQNO mutagenicity,Vibrio harveyi BB7XM [12],12%
same,"Number of revertants per plate, Mean ± SD",Vibrio harveyi BB7M [13]; [17],45 ± 10
same,% inhibition of NQNO mutagenicity,Vibrio harveyi BB7M [13],54%
